Experimental data reported in patent publication US20140051679A1, “KINASE INHIBITORS AND METHOD OF TREATING CANCER WITH SAME” (UNIVERISTY HEALTH NETWORKS, priority 2011, published 2014).

Legend:
[1] = tested on: HCT116 colon cancer cells; test: Cell growth inhibition, Sulforhodamine B assay, HCT116; assay type: cell-based; settings: Homo sapiens, HCT-116, 120 h, 5 days culture, SRB assay, read-out: Cell Line GI50 Range HCT116
[2] = tested on: OVCAR-3 ovarian cancer cells; test: Cell growth inhibition, Sulforhodamine B assay, OVCAR-3; assay type: cell-based; settings: Homo sapiens, 120 h, 5 days culture, SRB assay, read-out: Cell Line GI50 Range OVCAR-3
[3] = tested on: MDA-MB-468 breast cancer cells; test: Cell growth inhibition, Sulforhodamine B assay, MDA-MB-468; assay type: cell-based; settings: Homo sapiens, 120 h, 5 days culture, SRB assay, read-out: Cell Line GI50 Range MDA-MB-468
[4] = target: T1, Aurora B (Homo sapiens, UniProt Q96GD4); test: Aurora B inhibition assay (Z-Lyte); assay type: biochemical; settings: 28 nM Aurora B, 128 μM ATP; read-out: IC50 Ranges Aurora B
T1 construct: purchased Invitrogen PV3970
T1 sequence (Q96GD4 whole entry): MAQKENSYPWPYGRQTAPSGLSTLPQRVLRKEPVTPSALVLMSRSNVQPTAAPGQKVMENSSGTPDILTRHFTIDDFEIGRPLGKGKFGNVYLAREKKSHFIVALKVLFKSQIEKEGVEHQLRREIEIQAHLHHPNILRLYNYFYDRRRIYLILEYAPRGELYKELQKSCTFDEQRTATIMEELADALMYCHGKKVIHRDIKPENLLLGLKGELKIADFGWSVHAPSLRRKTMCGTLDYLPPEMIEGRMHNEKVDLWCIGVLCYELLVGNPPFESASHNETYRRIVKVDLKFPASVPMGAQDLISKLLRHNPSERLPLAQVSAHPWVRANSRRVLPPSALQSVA
Procedure: Aurora B inhibition was determined using the Z-Lyte assay kit from Invitrogen. The assay was performed using the recommended manufacturer's instructions with 128 μM ATP and 28 nM Aurora B (Invitrogen cat #PV3970). The % inhibition values were determined according to the manufacturer's directions and IC50 values were obtained using a non-linear 4 point logistic curve fit (XLfit4, IDBS)

[5] = tested on: Ovarian TICs, 2393A ovarian; test: Ovarian tumor-initiating cell growth inhibition (Alamar Blue); assay type: cell-based; settings: 144 h, 6 days, read-out: GI50 range 2393A ovarian
[6] = tested on: Colon tumor initiating cells (TICs), 12 colon; test: Colon tumor-initiating cell growth inhibition (Alamar Blue); assay type: cell-based; settings: 216 h, 9 days, read-out: GI50 range 12 colon
[7] = tested on: HT29 colon cancer cells; test: Cell growth inhibition, Sulforhodamine B assay, HT29; assay type: cell-based; settings: Homo sapiens, HT-29, 120 h, 5 days culture, SRB assay, read-out: Cell Line GI50 Range HT29
[8] = tested on: MDA-MB-231 breast cancer cells; test: Cell growth inhibition, Sulforhodamine B assay, MDA-MB-231; assay type: cell-based; settings: Homo sapiens, 120 h, 5 days culture, SRB assay, read-out: Cell Line GI50 Range MDA-MB-231
[9] = target: T2, human PLK4 (Homo sapiens, UniProt O00444); test: PLK4 inhibition assay (indirect ELISA); assay type: biochemical; settings: GST-PLK4 4 nM, 15 μM ATP; read-out: IC50 Ranges PLK4
T2 construct: amino terminal GST fusion of residues 1-391 of human PLK4; made in house; host or cells: E. coli
T2 sequence (O00444 1-391): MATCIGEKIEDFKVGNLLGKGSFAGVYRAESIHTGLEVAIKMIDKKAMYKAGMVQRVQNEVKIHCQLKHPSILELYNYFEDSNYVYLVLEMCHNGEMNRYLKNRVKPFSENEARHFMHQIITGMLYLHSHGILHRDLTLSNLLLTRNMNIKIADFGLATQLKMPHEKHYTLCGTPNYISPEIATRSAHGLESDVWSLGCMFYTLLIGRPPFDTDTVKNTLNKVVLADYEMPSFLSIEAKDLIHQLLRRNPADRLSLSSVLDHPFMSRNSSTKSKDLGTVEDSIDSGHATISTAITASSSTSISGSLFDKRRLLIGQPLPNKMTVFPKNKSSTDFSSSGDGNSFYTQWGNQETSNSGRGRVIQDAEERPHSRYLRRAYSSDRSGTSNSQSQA
Method in brief: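 Dephosphorylated GST-tagged human PLK4 (residues 1-391, E. coli), 4 nM, preincubated 15 min with compound, then reacted 30 min with 15 μM ATP on MBP-coated plates (50 mM HEPES pH 7.5, 10 mM MgCl2, 0.01% Brij 35). Phospho-MBP detected by antibody ELISA at 450 nm. Tested at 10 μM or 10-point titrations; IC50 from 4-parameter logistic fit.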

[10] = target: T3, human TTK (Homo sapiens, UniProt P33981); test: TTK inhibition assay (indirect ELISA); assay type: biochemical; settings: GST-TTK 0.68 nM, 16 μM ATP; read-out: IC50 Ranges TTK
T3 construct: amino terminal GST fusion of full length human TTK; purchased Invitrogen
T3 sequence (P33981 1-857): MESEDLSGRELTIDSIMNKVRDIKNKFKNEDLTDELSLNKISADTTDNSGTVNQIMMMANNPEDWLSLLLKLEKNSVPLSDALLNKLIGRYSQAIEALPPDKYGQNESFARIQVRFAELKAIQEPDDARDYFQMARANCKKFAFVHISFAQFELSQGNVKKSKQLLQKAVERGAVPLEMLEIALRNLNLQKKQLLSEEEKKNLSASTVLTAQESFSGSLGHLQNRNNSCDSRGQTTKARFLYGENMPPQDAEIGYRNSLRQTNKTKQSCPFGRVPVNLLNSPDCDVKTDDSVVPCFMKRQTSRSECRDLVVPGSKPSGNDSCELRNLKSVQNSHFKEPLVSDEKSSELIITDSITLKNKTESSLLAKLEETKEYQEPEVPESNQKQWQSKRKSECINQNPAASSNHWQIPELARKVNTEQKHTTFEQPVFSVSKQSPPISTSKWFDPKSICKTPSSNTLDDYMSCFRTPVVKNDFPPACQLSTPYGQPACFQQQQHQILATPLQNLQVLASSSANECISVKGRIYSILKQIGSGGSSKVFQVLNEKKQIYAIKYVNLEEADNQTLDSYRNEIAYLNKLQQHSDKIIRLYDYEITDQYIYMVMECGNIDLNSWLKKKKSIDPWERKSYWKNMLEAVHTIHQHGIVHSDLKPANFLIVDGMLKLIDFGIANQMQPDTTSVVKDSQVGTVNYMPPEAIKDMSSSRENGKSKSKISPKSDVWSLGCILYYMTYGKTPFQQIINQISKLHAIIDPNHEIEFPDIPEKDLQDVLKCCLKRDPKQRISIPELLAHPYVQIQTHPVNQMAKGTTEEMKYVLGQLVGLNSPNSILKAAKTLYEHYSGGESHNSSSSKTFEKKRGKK

[11] = tested on: PA-1 ovarian cancer cells; test: Cell growth inhibition, Sulforhodamine B assay, PA-1; assay type: cell-based; settings: 120 h, 5 days culture, SRB assay, read-out: Cell Line GI50 Range PA-1

COCCN1CCC(Oc2ccc(-c3n[nH]c4ccc(C(=O)N[C@H](c5ccsc5)C5CC5)cc34)cc2)CC1 [Example A154]
≤ 5 µM: GI50 [1] | GI50 [2] | GI50 [3] | IC50 [4] | GI50 [5] | GI50 [6] | GI50 [7] | GI50 [8] | IC50 [9] | IC50 [10] | GI50 [11]

O=C(NC(c1ccccc1)C1CC1)c1ccc2[nH]nc(-c3ccc(OC4CCN(C5COC5)CC4)cc3)c2c1 (stereo not drawn) [Example A157]
≤ 5 µM: GI50 [1] | GI50 [2] | GI50 [3] | IC50 [4] | GI50 [5] | GI50 [6] | GI50 [7] | GI50 [8] | IC50 [9] | IC50 [10] | GI50 [11]

COCCN1CCC(Oc2ccc(-c3n[nH]c4ccc(C(=O)N[C@H](c5cccs5)C5CC5)cc34)cc2)CC1 [Example A163, (S)—N-(cyclopropyl(thiophen-2-yl)methyl)-3-(4-((1-(2-methoxyethyl)piperidin-4-yl)oxy)phenyl)-1H-indazole-5-carboxamide]
≤ 5 µM: GI50 [1] | GI50 [2] | GI50 [3] | IC50 [4] | GI50 [5] | GI50 [6] | GI50 [7] | GI50 [8] | IC50 [9] | IC50 [10] | GI50 [11]

CN1CCC(Oc2ccc(-c3n[nH]c4ccc(C(=O)N[C@@H](c5sccc5Cl)C5CC5)cc34)cc2)CC1 [Example A166, (R)—N-((3-chlorothiophen-2-yl)(cyclopropyl)methyl)-3-(4-((1-methylpiperidin-4-yl)oxy)phenyl)-1H-indazole-5-carboxamide]
≤ 5 µM: GI50 [1] | GI50 [2] | GI50 [3] | IC50 [4] | GI50 [5] | GI50 [6] | GI50 [7] | GI50 [8] | IC50 [9] | IC50 [10] | GI50 [11]

CC[C@@H](NC(=O)c1ccc2[nH]nc(-c3ccc(OC4CCN(C)CC4)cc3)c2c1)c1cccc(OC)c1 [Example A174, (R)—N-(1-(3-methoxyphenyl)propyl)-3-(4-((1-methylpiperidin-4-yl)oxy)phenyl)-1H-indazole-5-carboxamide]
≤ 5 µM: GI50 [1] | GI50 [2] | GI50 [3] | IC50 [4] | GI50 [5] | GI50 [6] | GI50 [7] | GI50 [8] | IC50 [9] | IC50 [10] | GI50 [11]

COCCN1CCC(Oc2ccc(-c3n[nH]c4ccc(NC(=O)C(c5ccsc5)N5CCCC5)cc34)cc2)CC1 (stereo not drawn) [Example A175, N-(3-(4-((1-(2-methoxyethyl)piperidin-4-yl)oxy)phenyl)-1H-indazol-5-yl)-2-(pyrrolidin-1-yl)-2-(thiophen-3-yl)acetamide]
≤ 5 µM: GI50 [1] | GI50 [2] | GI50 [3] | IC50 [4] | GI50 [5] | GI50 [6] | GI50 [7] | GI50 [8] | IC50 [9] | IC50 [10] | GI50 [11]

O=CN1CCC(Oc2ccc(-c3n[nH]c4ccc(NC(=O)C(c5ccccn5)C5CCCC5)cc34)cc2)CC1 (stereo not drawn) [Example A176, 2-cyclopentyl-N-(3-(4-((1-formylpiperidin-4-yl)oxy)phenyl)-1H-indazol-5-yl)-2-(pyridin-2-yl)acetamide]
≤ 5 µM: GI50 [1] | GI50 [2] | GI50 [3] | IC50 [4] | GI50 [5] | GI50 [6] | GI50 [7] | GI50 [8] | IC50 [9] | IC50 [10] | GI50 [11]

CN1CCC(Oc2ccc(-c3n[nH]c4ccc(C(=O)NC(c5ccccc5)C5CCOCC5)cc34)cc2)CC1 (stereo not drawn) [Example A177, 3-(4-((1-methylpiperidin-4-yl)oxy)phenyl)-N-(phenyl(tetrahydro-2H-pyran-4-yl)methyl)-1H-indazole-5-carboxamide]
≤ 5 µM: GI50 [1] | GI50 [2] | GI50 [3] | IC50 [4] | GI50 [5] | GI50 [6] | GI50 [7] | GI50 [8] | IC50 [9] | IC50 [10] | GI50 [11]

CN1[C@@H]2CC[C@H]1C[C@@H](Oc1ccc(-c3n[nH]c4ccc(C(=O)NC(c5ccccc5)C5CC5)cc34)cc1)C2 (stereo partly drawn) [Example A178, N-(cyclopropyl(phenyl)methyl)-3-(4-(((1R,3r,5S)-8-methyl-8-azabicyclo[3.2.1]octan-3-yl)oxy)phenyl)-1H-indazole-5-carboxamide]
≤ 5 µM: GI50 [1] | GI50 [2] | GI50 [3] | IC50 [4] | GI50 [5] | GI50 [6] | GI50 [7] | GI50 [8] | IC50 [9] | IC50 [10] | GI50 [11]
